Like-named read-outs stand apart in the source and are kept apart here.
Test: Tigecycline plasma PK and % F after PO enteric-coated capsule in dogs
Type: in vivo, Beagle dogs
Conditions: for concentration at 0 min: Time (min) 0.0; for concentration at 0.3 min: Time (min) 0.3; for concentration at 0.7 min: Time (min) 0.7; for concentration at 24 min: Time (min) 24.0; for Predicted AUC(0-t), % Difference / Predicted Mean Cmax, % Difference: observed vs predicted from 15 mg results; for Predicted AUC(0-t) / Predicted Mean Cmax: predicted from 15 mg results
Experimental: Adult beagle dogs weighing approximately 9 to 15 kg were used in the study. […] Room temperature was set to be maintained between approximately 20±5° C. Relative humidity was monitored but not controlled.
TEKLAD™ Certified Canine Diet was provided once daily in amounts (˜400 grams) appropriate for the size and age of the animals. Tap water was available ad libitum via automatic watering device or water bowls.
Oral dosing of enteric-coated capsules was accomplished by administering them to the back of the dog's mouth, followed by a chase of 5 mL water to ensure swallowing.
Water was provided ad libitum. […] Subsequently, each group of animals was dosed based on the protocol, i.e. either IV, or PO by capsule.
Minocycline (VWR international) was used as an internal standard. Sample processing/clean-up of plasma samples was carried out offline by protein precipitation with acidified acetonitrile using 0.5% trifluoroacetic acid (TFA).
The HPLC system consisted of Shimadzu SIL-HTc HPLC system equipped with dual Shimadzu LC-10ADvp isopumps, a Shimadzu CTO-10ASvp column temperature controller and a Shimadzu SPD-10Avp variable wavelength detector. […] Mobile phase A consisted of 23 mM phosphate buffer pH 2.5 with 4 mM 1-octanesulfonic acid, while mobile phase B consisting of 90% acetonitrile, 10% water, with 2 mM 1-octanesulfonic acid. […] The total runtime was 18 minutes per sample. The mobile phase flow rate was 1.2 mL/min. Detection was performed using the SPD-10Avp variable wavelength detector set at 350 nm, with a sensitivity of 0.001 aufs.
The samples were then centrifuged under refrigeration at 13 k rpm for 5 minutes. The supernatant was taken and the liquid removed to dryness under nitrogen in a turbovap. The dried extract was reconstituted in 60 μL of mobile phase A and the suspension was further centrifuged at 5 k rpm for 5 minutes to pellet any insoluble matter. The resulting supernatant was then injected onto the LC.
The unknown concentration in dog plasma samples was determined by interpolation of the peak area ratios of analyte:internal standard versus the ratio of their nominal concentrations into the regression line obtained from calibration standards spiked in pooled dog plasma. No regression weighting was used for the calculations. […] The calibration curve covered the range of 0.05 μg/mL to 5 μg/mL. […]
The capsules were enterically coated using a standard preclinical protocol to 10% weight gain. Two studies were conducted.

[1] = female, beagle, dog, plasma, po, 45 mg, Tigecycline Plasma Concentration, PO 45 mg enteric-coated capsule with 500 mg CA and 100 mg LLC, SC430, individual dogs
[2] = female, beagle, dog, plasma, po, 45 mg, Tigecycline Plasma Concentration, PO 45 mg enteric-coated capsule with 500 mg CA and 100 mg LLC, SC430, mean

CN(C)c1cc(NC(=O)CNC(C)(C)C)c(O)c2c1C[C@H]1C[C@H]3[C@H](N(C)C)C(O)=C(C(N)=O)C(=O)[C@@]3(O)C(O)=C1C2=O [Tigecycline]
Tmax (female, beagle, dog, plasma, po, 45 mg, 45 mg Formulated (500 mg CA, 100 mg LLC) enteric coated capsule, Study 2 (SC430), mean (% CV), read-out: Tmax (converted)): 1.67 h | AUC(0-t) (female, beagle, dog, plasma, po, 45 mg, PO 45 mg enteric-coated capsule with 500 mg CA and 100 mg LLC (SC430), read-out: AUC(0-t), mean): 0.574 µg·h/mL | Cmax (female, beagle, dog, plasma, po, 45 mg, PO 45 mg enteric-coated capsule with 500 mg CA and 100 mg LLC (SC430), read-out: Cmax, mean): 0.177 µg/mL | bioavailability (female, beagle, dog, plasma, po, 45 mg, PO 45 mg enteric-coated capsule with 500 mg CA and 100 mg LLC (SC430), read-out: absolute % F, mean): 15.5% | AUC(0-t) (female, beagle, dog, plasma, po, 45 mg, PO 45 mg enteric-coated capsule with 500 mg CA and 100 mg LLC ([…]), SC430, mean, read-out: AUC(0-t)): 0.574 µg·h/mL | Cmax (female, beagle, dog, plasma, po, 45 mg, PO 45 mg enteric-coated capsule with 500 mg CA and 100 mg LLC ([…]), SC430, mean, read-out: Cmax): 0.177 µg/mL | Tmax (female, beagle, dog, plasma, po, 45 mg, PO 45 mg enteric-coated capsule with 500 mg CA and 100 mg LLC ([…]), SC430, mean, read-out: Tmax (converted)): 1.67 h | bioavailability (female, beagle, dog, plasma, po, 45 mg, PO 45 mg enteric-coated capsule with 500 mg CA and 100 mg LLC, SC430, calculated from IV PK data of SC431, mean, read-out: % F): 15.5% | bioavailability (female, beagle, dog, plasma, po, 45 mg, Study 2 (SC430), 45 mg Formulated enteric coated capsule (500 mg citric acid, 100 mg LLC), oral, dogs, N=5, mean (% CV), based on that study's IV arm, read-out: % F): 15.5% | Tmax (female, beagle, dog, plasma, po, 45 mg, Study 2 (SC430), 45 mg Formulated enteric coated capsule (500 mg citric acid, 100 mg LLC), oral, dogs, N=5, mean (% CV), read-out: Tmax (converted)): 1.67 h | AUC(0-t) (female, beagle, dog, plasma, po, 45 mg, Study 2 (SC430), 45 mg Formulated enteric coated capsule (500 mg citric acid, 100 mg LLC), oral, dogs, N=5, mean (% CV), sampling 24 h, read-out: AUC(0-t)): 0.574 µg·h/mL | Cmax (female, beagle, dog, plasma, po, 45 mg, Study 2 (SC430), 45 mg Formulated enteric coated capsule (500 mg citric acid, 100 mg LLC), oral, dogs, N=5, mean (% CV), sampling 24 h, read-out: Cmax): 0.177 µg/mL | concentration at 0 min [1]: 0 µg/mL | concentration at 0 min [2]: 0 µg/mL | concentration at 0.3 min [1]: 0 µg/mL | concentration at 0.3 min [2]: 0 µg/mL | concentration at 0.7 min [1]: 0 µg/mL | concentration at 0.7 min [2]: 0 µg/mL | concentration at 1 min (female, beagle, dog, plasma, po, 45 mg, Tigecycline Plasma Concentration, Time (min) 1.0, PO 45 mg enteric-coated capsule with 500 mg CA and 100 mg LLC, SC430, mean): 0.0564 µg/mL | concentration at […] (female, beagle, dog, plasma, po, 45 mg, Tigecycline Plasma Concentration, Time (min) 1.3, PO 45 mg enteric-coated capsule with 500 mg CA and 100 mg LLC, SC430, mean): 0.0583 µg/mL | concentration at […] (female, beagle, dog, plasma, po, 45 mg, Tigecycline Plasma Concentration, Time (min) 1.7, PO 45 mg enteric-coated capsule with 500 mg CA and 100 mg LLC, SC430, mean): 0.101 µg/mL | concentration at 2 min (female, beagle, dog, plasma, po, 45 mg, Tigecycline Plasma Concentration, Time (min) 2.0, PO 45 mg enteric-coated capsule with 500 mg CA and 100 mg LLC, SC430, mean): 0.144 µg/mL | concentration at […] (female, beagle, dog, plasma, po, 45 mg, Tigecycline Plasma Concentration, Time (min) 2.3, PO 45 mg enteric-coated capsule with 500 mg CA and 100 mg LLC, SC430, mean): 0.108 µg/mL | concentration at […] (female, beagle, dog, plasma, po, 45 mg, Tigecycline Plasma Concentration, Time (min) 2.7, PO 45 mg enteric-coated capsule with 500 mg CA and 100 mg LLC, SC430, mean): 0.0986 µg/mL | concentration at 3 min (female, beagle, dog, plasma, po, 45 mg, Tigecycline Plasma Concentration, Time (min) 3.0, PO 45 mg enteric-coated capsule with 500 mg CA and 100 mg LLC, SC430, mean): 0.0765 µg/mL | concentration at […] (female, beagle, dog, plasma, po, 45 mg, Tigecycline Plasma Concentration, Time (min) 3.3, PO 45 mg enteric-coated capsule with 500 mg CA and 100 mg LLC, SC430, mean): 0.0687 µg/mL | concentration at […] (female, beagle, dog, plasma, po, 45 mg, Tigecycline Plasma Concentration, Time (min) 3.7, PO 45 mg enteric-coated capsule with 500 mg CA and 100 mg LLC, SC430, mean): 0.062 µg/mL | concentration at 4 min (female, beagle, dog, plasma, po, 45 mg, Tigecycline Plasma Concentration, Time (min) 4.0, PO 45 mg enteric-coated capsule with 500 mg CA and 100 mg LLC, SC430, mean): 0.0517 µg/mL | concentration at […] (female, beagle, dog, plasma, po, 45 mg, Tigecycline Plasma Concentration, Time (min) 4.5, PO 45 mg enteric-coated capsule with 500 mg CA and 100 mg LLC, SC430, mean): 0.0489 µg/mL | concentration at 5 min (female, beagle, dog, plasma, po, 45 mg, Tigecycline Plasma Concentration, Time (min) 5.0, PO 45 mg enteric-coated capsule with 500 mg CA and 100 mg LLC, SC430, mean): 0.0506 µg/mL | concentration at […] (female, beagle, dog, plasma, po, 45 mg, Tigecycline Plasma Concentration, Time (min) 5.5, PO 45 mg enteric-coated capsule with 500 mg CA and 100 mg LLC, SC430, mean): 0.0425 µg/mL | concentration at 6 min (female, beagle, dog, plasma, po, 45 mg, Tigecycline Plasma Concentration, Time (min) 6.0, PO 45 mg enteric-coated capsule with 500 mg CA and 100 mg LLC, SC430, mean): 0.0352 µg/mL | concentration at 8 min (female, beagle, dog, plasma, po, 45 mg, Tigecycline Plasma Concentration, Time (min) 8.0, PO 45 mg enteric-coated capsule with 500 mg CA and 100 mg LLC, SC430, mean): 0.0229 µg/mL | concentration at 10 min (female, beagle, dog, plasma, po, 45 mg, Tigecycline Plasma Concentration, Time (min) 10.0, PO 45 mg enteric-coated capsule with 500 mg CA and 100 mg LLC, SC430, mean): 0.0168 µg/mL | concentration at 24 min [1]: 0 µg/mL | concentration at 24 min [2]: 0 µg/mL | Cmax (female, beagle, dog, plasma, po, 45 mg, target dose 45 mg, enterically coated capsule, read-out: Observed Mean Cmax): 0.177 µg/mL | AUC(0-t) (female, beagle, dog, plasma, po, 45 mg, target dose 45 mg, enterically coated capsule, time scale adjusted to 4 hours, read-out: Observed AUC(0-t)): 0.266 µg·h/mL | Tmax (female, beagle, dog, plasma, po, all studied oral formulations, read-out: Tmax, mean (converted)): ~1.67 h | Predicted AUC(0-t), % Difference (target dose 30 mg): −23.9% | Predicted Mean Cmax, % Difference (target dose 30 mg): −24.8% | Predicted AUC(0-t) (target dose 30 mg): 0.265 µg·h/mL | Predicted Mean Cmax (target dose 30 mg): 0.151 µg/mL | Predicted AUC(0-t), % Difference (target dose 45 mg): −49.4% | Predicted Mean Cmax, % Difference (target dose 45 mg): −28.0% | Predicted AUC(0-t) (target dose 45 mg): 0.398 µg·h/mL | Predicted Mean Cmax (target dose 45 mg): 0.226 µg/mL

From patent publication US9526785B2, “Pharmaceuticals for oral delivery” (Enteris BioPharma, Inc., priority 2013, dated 2016)
